Assay results taken from publication PMC3362725, “An open-label, phase 1 study evaluating safety, tolerability, and pharmacokinetics of linifanib (ABT-869) in Japanese patients with solid tumors” (Cancer Chemotherapy and Pharmacology, 2012).
Read-outs that look alike come from different tables or passages of the source.

Assays:
[1] = Pharmacokinetics of oral linifanib in plasma and urine, non-compartmental analysis, phase 1 study; type: in vivo, human (Japanese patients with solid tumors); details: for DN AUC24 / DN C max: dose-normalized; for AUC: read-out: AUC24
Description: Pharmacokinetic sampling occurred pre-dose and 0.5, 1, 2, 3, 4, 6, 8, and 24 h after single-dose linifanib on Cycle (C) 1D1, and pre-dose and 0.5, 1, 2, 3, 4, 6, and 8 h after multiple once-daily doses on C1D15. Urine was collected for 24-h after the C1D15 dose. Linifanib and its metabolite concentrations in plasma and urine were determined using a validated method based on triple quadruple tandem mass spectrometry with a lower limit of quantification of 1.0 ng/mL.
Pharmacokinetic parameter (defined in Table 3) concentrations were determined by non-compartmental analysis using WinNonlin Professional v.5.2 (Pharsight Corp., Cary, NC). […] Additional samples were collected at C3D1 (pre-dose) and every second cycle until study completion or until C15D1. Concentrations for samples at C3D1 and subsequent samples, and data from C1D1 to C1D15 were included in the nonlinear mixed effects models to explore covariates such as age, body weight, and gender (data not shown). Following single-dose linifanib at 0.25 mg/kg, a post hoc analysis compared the pharmacokinetics between the Japanese patients in the current study and non-Japanese patients in two phase 1 studies: Caucasian patients receiving […] linifanib (Abbott, unpublished) and the non-Japanese segment of Asian patients receiving 0.10–0.30 mg/kg linifanib.

[2] = set-up: method as in PMID 19720910; details: non-Japanese Asian patients, 0.10–0.30 mg/kg single dose, mean ± SD, N 31; calculated from ref 14; cited from earlier work
[3] = set-up: method as in earlier work; details: Caucasian patients, 0.25 mg/kg single dose, mean ± SD, N 13; cited from earlier work
[4] = 0.05 mg/kg once daily, multiple dose (C1D15), mean ± SD, N 3
[5] = 0.05 mg/kg oral, single dose (C1D1), mean ± SD, N 3
[6] = 0.10 mg/kg once daily, multiple dose (C1D15), mean ± SD, N 5
[7] = 0.10 mg/kg oral, single dose (C1D1), mean ± SD, N 6
[8] = 0.20 mg/kg once daily, multiple dose (C1D15), mean ± SD, N 3
[9] = 0.20 mg/kg oral, single dose (C1D1), mean ± SD, N 3
[10] = 0.25 mg/kg once daily, multiple dose (C1D15), mean ± SD, N 5
[11] = 0.25 mg/kg oral, single dose (C1D1), mean ± SD, N 6
[12] = human, plasma, 0.1 mg/kg, 0.10 mg/kg oral, single dose (C1D1), mean ± SD, N 6
[13] = human, plasma, 0.2 mg/kg, 0.20 mg/kg oral, single dose (C1D1), mean ± SD, N 3
[14] = human, plasma, 0.05 mg/kg oral, single dose (C1D1), mean ± SD, N 3
[15] = human, plasma, 0.25 mg/kg oral, single dose (C1D1), mean ± SD, N 6

Q: Which “R (accumulation ratio calculated as DN AUC24 between D15 and D1)” value ([1]; 0.05 mg/kg once daily, mean ± SD, N 3) does the source give for Cc1ccc(F)c(NC(=O)Nc2ccc(-c3cccc4[nH]nc(N)c34)cc2)c1 [linifanib, N-(4-(3-amino-1H-indazol-4-yl)phenyl)-N’-(2-fluoro-5-methylphenyl)urea] here?
A: The value was 1.58 ± 0.34.

Q: And the “R (accumulation ratio calculated as DN AUC24 between D15 and D1)” value ([1]; 0.10 mg/kg once daily, mean ± SD, N 5)?
A: Its value is 1.46 ± 0.27.

Q: What about the “R (accumulation ratio calculated as DN AUC24 between D15 and D1)” value ([1]; 0.20 mg/kg once daily, mean ± SD, N 3) of the same compound?
A: Its value is 1.56 ± 0.08.

Q: What about the “R (accumulation ratio calculated as DN AUC24 between D15 and D1)” value ([1]; 0.25 mg/kg once daily, mean ± SD, N 5) of the same compound?
A: The value was 1.46 ± 0.23.

Q: And the “dose proportionality of pharmacokinetics” value ([1]; 0.10–0.25 mg/kg, single and once-daily dosing)?
A: Its value is “dose-proportional”.

Q: What about the “DN AUC24” value [1, 4] of the same compound?
A: Its value is 0.77 ± 0.18 µg·h/mL/mg.

Q: What about the “DN C max” value [1, 4] of the same compound?
A: The value was 0.051 ± 0.007 µg/mL/mg.

Q: And the “DN AUC24” value [1, 5]?
A: The value was 0.49 ± 0.08 µg·h/mL/mg.

Q: And the “DN C max” value [1, 5]?
A: The value was 0.036 ± 0.007 µg/mL/mg.

Q: And the “DN AUC24” value [1, 6]?
A: The value was 0.50 ± 0.11 µg·h/mL/mg.

Q: And the “DN C max” value [1, 6]?
A: Its value is 0.034 ± 0.008 µg/mL/mg.

Q: And the “DN AUC24” value [1, 7]?
A: Its value is 0.33 ± 0.04 µg·h/mL/mg.

Q: And the “DN C max” value [1, 7]?
A: Its value is 0.026 ± 0.004 µg/mL/mg.

Q: And the “DN AUC24” value [1, 8]?
A: The value was 0.52 ± 0.02 µg·h/mL/mg.

Q: And the “DN C max” value [1, 8]?
A: Its value is 0.036 ± 0.003 µg/mL/mg.

Q: And the “DN AUC24” value [1, 9]?
A: Its value is 0.33 ± 0.01 µg·h/mL/mg.

Q: What about the “DN C max” value [1, 9] of the same compound?
A: The value was 0.028 ± 0.007 µg/mL/mg.

Q: And the “DN AUC24” value [1, 10]?
A: The value was 0.37 ± 0.06 µg·h/mL/mg.

Q: And the “DN C max” value [1, 10]?
A: Its value is 0.028 ± 0.002 µg/mL/mg.

Q: What about the “DN AUC24” value [1, 11] of the same compound?
A: The value was 0.25 ± 0.02 µg·h/mL/mg.

Q: What about the “DN C max” value [1, 11] of the same compound?
A: Its value is 0.019 ± 0.004 µg/mL/mg.

Q: And the Cmax [1, 12]?
A: Its Cmax is 152 ± 36 ng/mL.

Q: What about the AUC [1, 12] of the same compound?
A: Its AUC is 1910 ± 380 ng·h/mL.

Q: And the Tmax ([1]; human, plasma, 0.1 mg/kg, 0.10 mg/kg oral, single dose (C1D1), mean ± SD, N 6, read-out: T max)?
A: Its Tmax is 1.67 ± 0.52 h.

Q: What about the Cmax [1, 13] of the same compound?
A: Its Cmax is 305 ± 70 ng/mL.

Q: And the AUC [1, 13]?
A: Its AUC is 3600 ± 430 ng·h/mL.

Q: And the Tmax ([1]; human, plasma, 0.2 mg/kg, 0.20 mg/kg oral, single dose (C1D1), mean ± SD, N 3, read-out: T max)?
A: Its Tmax is 1.67 ± 0.57 h.

Q: What about the Cmax ([1]; human, plasma, oral, 0.1 mg/kg, 0.10 mg/kg once daily, multiple dose (C1D15), mean ± SD, N 5) of the same compound?
A: Its Cmax is 186 ± 64 ng/mL.

Q: What about the Tmax ([1]; human, plasma, oral, 0.1 mg/kg, 0.10 mg/kg once daily, multiple dose (C1D15), mean ± SD, N 5, read-out: T max) of the same compound?
A: Its Tmax is 2.2 ± 0.45 h.

Q: What about the AUC ([1]; human, plasma, oral, 0.1 mg/kg, 0.10 mg/kg once daily, multiple dose (C1D15), pre-dose concentration assumed equal to 24 h, mean ± SD, N 5) of the same compound?
A: Its AUC is 2820 ± 1030 ng·h/mL.

Q: What about the Cmax ([1]; human, plasma, oral, 0.2 mg/kg, 0.20 mg/kg once daily, multiple dose (C1D15), mean ± SD, N 3) of the same compound?
A: The Cmax was 390 ± 41 ng/mL.

Q: And the Tmax ([1]; human, plasma, oral, 0.2 mg/kg, 0.20 mg/kg once daily, multiple dose (C1D15), mean ± SD, N 3, read-out: T max)?
A: The Tmax was 2.33 ± 0.58 h.

Q: What about the AUC ([1]; human, plasma, oral, 0.2 mg/kg, 0.20 mg/kg once daily, multiple dose (C1D15), pre-dose concentration assumed equal to 24 h, mean ± SD, N 3) of the same compound?
A: The AUC was 5630 ± 920 ng·h/mL.

Q: What about the half-life ([1]; human, plasma, oral, after repeated daily dosing, associated with accumulation ratio 1.5, read-out: effective half-life (converted)) of the same compound?
A: Its half-life is 900 min.

Q: And the Cmax ([1]; human, plasma, oral, 0.05 mg/kg once daily, multiple dose (C1D15), mean ± SD, N 3)?
A: The Cmax was 128 ± 17 ng/mL.

Q: What about the Tmax ([1]; human, plasma, oral, 0.05 mg/kg once daily, multiple dose (C1D15), mean ± SD, N 3, read-out: T max) of the same compound?
A: The Tmax was 2.34 ± 0.57 h.

Q: What about the AUC ([1]; human, plasma, oral, 0.05 mg/kg once daily, multiple dose (C1D15), pre-dose concentration assumed equal to 24 h, mean ± SD, N 3) of the same compound?
A: The AUC was 1920 ± 450 ng·h/mL.

Q: And the Cmax ([1]; human, plasma, oral, 0.25 mg/kg once daily, multiple dose (C1D15), mean ± SD, N 5)?
A: Its Cmax is 418 ± 55 ng/mL.

Q: And the Tmax ([1]; human, plasma, oral, 0.25 mg/kg once daily, multiple dose (C1D15), mean ± SD, N 5, read-out: T max)?
A: Its Tmax is 2.2 ± 0.45 h.

Q: And the AUC ([1]; human, plasma, oral, 0.25 mg/kg once daily, multiple dose (C1D15), pre-dose concentration assumed equal to 24 h, mean ± SD, N 5)?
A: The AUC was 5460 ± 1160 ng·h/mL.

Q: And the Cmax [1, 14]?
A: The Cmax was 90 ± 18 ng/mL.

Q: And the AUC [1, 14]?
A: Its AUC is 1230 ± 210 ng·h/mL.

Q: And the Tmax ([1]; human, plasma, 0.05 mg/kg oral, single dose (C1D1), mean ± SD, N 3, read-out: T max)?
A: The Tmax was 1.65 ± 0.56 h.

Q: What about the Cmax [1, 15] of the same compound?
A: Its Cmax is 305 ± 68 ng/mL.

Q: What about the AUC [1, 15] of the same compound?
A: The AUC was 3780 ± 480 ng·h/mL.

Q: What about the Tmax ([1]; human, plasma, 0.25 mg/kg oral, single dose (C1D1), mean ± SD, N 6, read-out: T max) of the same compound?
A: Its Tmax is 2.33 ± 1.03 h.

Q: What about the Tmax ([1]; human, plasma, across all dose levels (0.05–0.25 mg/kg oral), read-out: average T max) of the same compound?
A: The Tmax was about 2 h.

Q: And the “DN AUC24” value [2]?
A: Its value is 0.25 ± 0.10 µg·h/mL/mg.

Q: What about the “DN C max” value [2] of the same compound?
A: The value was 0.020 ± 0.008 µg/mL/mg.

Q: What about the T max [2] of the same compound?
A: Its T max is 2.94 ± 1.27 h.

Q: What about the “DN AUC24” value [3] of the same compound?
A: Its value is 0.21 ± 0.04 µg·h/mL/mg.

Q: And the “DN C max” value [3]?
A: Its value is 0.018 ± 0.005 µg/mL/mg.

Q: What about the T max [3] of the same compound?
A: The T max was 1.77 ± 0.44 h.
